In ChEMBL document CHEMBL1135515, “Discovery of aminopyridine-based inhibitors of bacterial enoyl-ACP reductase (FabI)” (J Med Chem, 2002) one finds MIC and IC50 data, which are given here for 15 compounds.

For test [1], the system named is Enterococcus faecalis. Description: Minimum concentration required for inhibition of Enterococcus faecalis was determined. It is filed as functional.
The test system of test [2] is Haemophilus influenzae. Description: Minimum concentration required for inhibition of Haemophilus influenzae was determined. It is filed as functional.
Test [3] has as its system Staphylococcus aureus. The experiment in a line: Minimum concentration required for inhibition of Staphylococcus aureus was determined. It is filed as functional.
The subject of test [4] is Streptococcus pneumoniae. Description: Minimum concentration required for inhibition of Streptococcus pneumoniae was determined. The test is classed as functional.
The target of test [5] is T1, Enoyl-[acyl-carrier-protein] reductase [NADPH] FabI (Staphylococcus aureus, UniProt Q6GI75).
T1 sequence (Q6GI75 whole entry): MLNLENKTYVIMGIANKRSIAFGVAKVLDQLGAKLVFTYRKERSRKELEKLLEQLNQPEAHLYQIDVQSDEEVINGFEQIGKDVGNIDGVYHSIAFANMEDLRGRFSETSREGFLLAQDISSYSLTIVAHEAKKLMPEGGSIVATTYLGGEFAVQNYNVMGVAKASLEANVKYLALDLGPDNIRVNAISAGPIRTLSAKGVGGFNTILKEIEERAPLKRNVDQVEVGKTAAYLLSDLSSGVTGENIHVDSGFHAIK
Description: Concentration required for the 50% inhibition of enoyl-ACP reductase from Staphylococcus aureus was determined.

Test [6] can be described thus: Concentration required for the 50% inhibition of enoyl-ACP reductase from Haemophilus influenzae was determined.
The subject of test [7] is Moraxella catarrhalis. The experiment in a line: Minimum concentration required for inhibition of Moraxella catarrhalis was determined. The test is classed as functional.
Test [8] has as its system Enterococcus faecalis. Description: Minimum inhibitory concentration against growth of Enterococcus faecalis. It is filed as functional.
Test [9] can be described thus: Inhibitory concentration against Streptococcus pneumoniae Enoyl-ACP reductase.
The subject of test [10] is Haemophilus influenzae. Description: Antibacterial activity was measured against Haemophilus influenzae. The test is classed as functional.
Test [11] relates to Staphylococcus aureus. The experiment in a line: Antibacterial activity was measured against Staphylococcus aureus. The test is classed as functional.
Test [12] concerns Streptococcus pneumoniae. Description: Minimum inhibitory concentration against growth of Streptococcus pneumoniae. The test is classed as functional.
Test [13] can be described thus: Compound was measured for the inhibition of enoyl-ACP reductase from Staphylococcus aureus.
Test [14] is described as follows: Compound was measured for the inhibition of enoyl-ACP reductase from Haemophilus influenzae.
Test [15] concerns Escherichia coli. Description: Minimum concentration required for inhibition of Escherichia coli AcrAB was determined. It is filed as functional.
Test [16] can be described thus: Concentration required for the 50% inhibition of Enoyl-ACP reductase from Streptococcus pneumoniae was determined.
Test [17] concerns Haemophilus influenzae. The experiment in a line: Minimum concentration required for the inhibition of Haemophilus influenzae was determined. It is filed as functional.
The test system of test [18] is Staphylococcus aureus. The experiment in a line: Minimum concentration required for the inhibition of Staphylococcus aureus was determined. The test is classed as functional.

Each structure is given as a SMILES string. In brackets after ≈: the same amount, converted by molar mass.

The IC50 is the concentration that gives 50% inhibition. As for `CC(=O)N(C)Cc1cc(C(=O)N(C)Cc2cc3ccccc3n2C)ccc1N`, the MIC in [1] is more than 64 µg/mL; in [2], more than 64 µg/mL; in [3], 16 µg/mL (≈ 42.3 µM); in test [4] it was more than 64 µg/mL. In addition, the IC50 was 6.7 µM in test [5] and 4.7 µM in [6].
Consider `CN(Cc1cc2ccccc2n1C)C(=O)CCc1ccc(N)nc1`, for which the MIC in [1], in test [2], in [3] and in test [4] was more than 64 µg/mL each time. Moreover, the IC50 in [5] came out at 93.7 µM; in test [6] it was 97.4 µM.
`CN1Cc2cc(C(=O)N(C)Cc3cc4ccccc4n3C)ccc2NCC1=O`: the MIC is more than 64 µg/mL in test [1], more than 64 µg/mL in test [2], 16 µg/mL (≈ 42.5 µM) in [3] and more than 64 µg/mL in test [4]. Also, the IC50 in test [5] was 21.2 µM; in test [6], 2.5 µM.
For `CN(Cc1cc2ccccc2n1C)C(=O)c1ccccc1`, the MIC in test [1], in test [2], in [3] and in test [4] was more than 64 µg/mL in each case. In addition, the IC50 in test [5] and in [6] was more than 100 µM each time.
With `COC(=O)CC1Nc2ccc(C(=O)N(C)Cc3cc4ccccc4n3C)cc2CN(C)C1=O` (stereo unspecified), the MIC in test [1] was more than 64 µg/mL; in test [2] it was more than 64 µg/mL; in [7] it was 32 µg/mL (≈ 71.3 µM); in [3], more than 64 µg/mL; in test [4], more than 64 µg/mL. Moreover, the figures for the concentration for half-maximal inhibition (IC50) in test [5] and in [6] were 16.5 µM and 6.9 µM, respectively.
Take `CN(Cc1cc2ccccc2n1C)C(=O)/C=C/c1cnc(N)nc1`: the MIC in test [1] was more than 64 µg/mL; in test [2] it was more than 64 µg/mL; in [3], 2 µg/mL (≈ 6.22 µM); in [4] it was more than 64 µg/mL. The IC50 in test [5] was determined as 2.2 µM; in test [6], 4.3 µM.
For `CN(Cc1cc2ccccc2n1C)C(=O)/C=C/c1ccc(N)cc1`, the MIC in [8] was more than 64 µg/mL; in test [10] it was more than 64 µg/mL; in test [11] it was 32 µg/mL (≈ 100 µM); in test [12], more than 64 µg/mL. The values for the IC50 in test [9], in [13] and in test [14] were more than 30 µM, more than 11.2 µM and 9 µM, respectively.
In the case of `CN(Cc1cc2ccccc2n1C)C(=O)/C=C/c1cccnc1`, the MIC in test [1] was more than 64 µg/mL; in test [2], more than 64 µg/mL; in test [3], 16 µg/mL (≈ 52.4 µM); in [4] it was more than 64 µg/mL. Moreover, the IC50 in test [5] turned out to be 14.2 µM; in [6] it was 15.2 µM.
As for `CC(=O)N(C)Cc1cccc(C(=O)N(C)Cc2cc3ccccc3n2C)c1`, the MIC in test [1], in [2], in [3] and in test [4] was more than 64 µg/mL in each case. Moreover, the IC50 in test [5] is 107 µM; in [6], 121 µM.
As for `CN(Cc1cc2ccccc2n1C)C(=O)c1ccc2c(c1)CN(C)C(=O)[C@H](C(=O)O)N2`, the MIC in test [1], in test [2], in test [3] and in test [4] was more than 64 µg/mL in each case. The IC50 in test [5] was 676 µM; in test [6], more than 100 µM.
Regarding `CN(Cc1cc2ccccc2n1C)C(=O)/C=C/c1ccc(N)nc1`, the MIC is 8 µg/mL (≈ 25 µM) in test [15]; more than 64 µg/mL in [1]; more than 64 µg/mL in test [2]; 4 µg/mL (≈ 12.5 µM) in test [7]; 0.5 µg/mL (≈ 1.56 µM) in [3]; more than 64 µg/mL in [4]. The 50% inhibitory concentration (IC50) in [5] was determined as 2.4 µM; in [6], 4.2 µM.
In the case of `CN(Cc1cc2ccccc2n1C)C(=O)c1ccc(N)nc1`, the MIC in [1], in test [2], in [3] and in [4] was more than 64 µg/mL throughout. Also, the results for the IC50 in test [5] and in [6] were more than 100 µM and 19.2 µM, respectively.
Turning to `COC(=O)C[C@H]1Nc2ccc(C(=O)N(C)Cc3cc4ccccc4n3C)cc2CN(C)C1=O`, the MIC in [1], in test [2], in test [3] and in test [4] was more than 64 µg/mL each time. Further, the IC50 was 9.9 µM in [5] and 5.1 µM in [6].
In the case of `CN(Cc1cc2ccccc2n1C)C(=O)c1ccc(N)cc1`, the MIC in [1] was more than 64 µg/mL; in [2], more than 64 µg/mL; in test [3], 32 µg/mL (≈ 109 µM); in test [4], more than 64 µg/mL. Besides, the IC50 in [5] turned out to be 16.3 µM; in [6], 2.6 µM.
In turn, `Oc1cc(Cl)ccc1Oc1ccc(Cl)cc1Cl` [TRICLOSAN] had an IC50 in test [16] of more than 30 µM. For the same compound, the MIC in test [17] and in [18] was not above 0.06 µg/mL each time.
